This is an account of results in ChEMBL document CHEMBL3507680, “University of Dundee, Gates Library screen for HepG2 cell viability”.

This data set can be described thus: Human HepG2 cell viability assay in 384 well format. The format is toxicity, cell-based. Further details: dose 125 nL, time 70.5 hour; cytotoxicity at 70.5 h: concentration not given beside the values. The note with it: HepG2 cells, read-out: Inhibition.

As to `CN(CCC#N)C(=O)CN1CCCN(Cc2noc(C3CC3)n2)CC1`, the cytotoxicity at 70.5 h was -0.995%. The result for `NC(=O)c1cncc(N2CCN(Cc3ccc(F)cc3Cl)CC2)n1` reads -3.73%. The result for `COC(=O)c1cccc(CNC(=O)NCCC(F)(F)F)c1` reads 1.57%; that for `Cc1ncc(CNC(=O)N(C)Cc2ccc([S+](C)[O-])cc2)s1` (stereo not given), -4.15%. As for `Cc1n[nH]cc1CNC(=O)Nc1cccc(OCC(F)(F)F)c1`, the cytotoxicity at 70.5 h is -6.62%. The result for `CCOc1ccc(Cl)c(C(=O)NC(C)C(N)=O)n1` (stereo not given) reads -5.7%; that for `O=C(c1ccccc1)N1CCN(C2CCc3ccc(F)cc32)CC1` (stereo not given), -9.61%; that for `Cc1nn(C)c(N2CCOCC2)c1CNCC1CCCN1C` (stereo not given), -5.73%.

With `Cc1nn(C)c(N2CCOCC2)c1CNC1CCS(=O)(=O)C1` (stereo not given), the cytotoxicity at 70.5 h was -6.08%. The result for `CS(=O)(=O)NCCC(=O)NC1(c2ccc(F)cc2)CCCC1` reads -6.92%; that for `CC(C)c1cc(C(=O)NCc2nc(-c3ccc(F)cc3)n[nH]2)n[nH]1`, 12.6%.

On to `Cc1nn(C)c(NC(=O)C2SCCc3ccccc32)c1C` (stereo not given), for which the cytotoxicity at 70.5 h stood at 0.91%. The result for `CCc1ccc(C2COCCN2C(=O)NCc2cccc(C#N)c2)o1` (stereo not given) reads -9.17%; that for `Cc1nc(C)c(C)c(N2CCC3(CCOC3)C2)n1` (stereo not given), 17%; that for `c1cc(-c2noc(-c3cc(C4CC4)[nH]n3)n2)cc(N2CCCCC2)n1`, -0.746%. Turning to `CCN(CC(F)(F)F)C(=O)C1CCCN(Cc2ccno2)C1` (stereo not given), the cytotoxicity at 70.5 h is -7.36%.

As for `CCc1cnc(CN(C)C(=O)NC2CCN(C)C2=O)s1` (stereo not given), the cytotoxicity at 70.5 h is -7.59%. For the molecule `COC(=O)N1CCN(Cc2ccccc2C(C)(C)C#N)CC1`, the cytotoxicity at 70.5 h was -5.92%. `CCc1ccc(C2COCCN2C(=O)Nc2ccc(C#N)cc2)o1` (stereo not given): the cytotoxicity at 70.5 h worked out at 47.1%. The result for `CCN(CC)Cc1ccc(CNC(=O)C(C)(C)n2cc(Br)cn2)cc1` reads 15.4%.

For the molecule `O=C(CS(=O)(=O)Cc1nnnn1C1CC1)NCCc1ccccc1`, the cytotoxicity at 70.5 h is -3.81%. In the case of `O=C(CS(=O)(=O)Cc1nnnn1C1CC1)NCC1CC1` it was -4.04%. In the case of `O=C(NCc1ccccc1CN1CCOCC1)Nc1nncs1` it was 11%; in that of `O=C(NCCn1ccnc1)C1(c2ccc3c(c2)OCCO3)CCCC1`, -12%; in that of `O=C(NCc1ccccc1CN1CCCCC1)Nc1nncs1`, -10.2%.

As for `CC(Cn1ccnc1)NS(=O)(=O)c1ccc(F)c(Cl)c1` (stereo not given), the cytotoxicity at 70.5 h was -1.84%. For `CN(C1CCN(c2ccccn2)CC1)S(=O)(=O)c1ccccc1F`, the cytotoxicity at 70.5 h is -3.26%. In the case of `CN(C1CCN(c2ccccn2)CC1)S(=O)(=O)c1cccc(F)c1` it was 2.86%; in that of `O=c1[nH]c(CCN2CCN(CC(F)(F)F)CC2)nc2ccccc12`, -4.17%. The result for `CCOCCN1CCN(CCc2nc3ccccc3c(=O)[nH]2)CC1` reads 1.75%; that for `COCc1ccccc1C(=O)N1CCN(C2=NCC(C)(C)S2)CC1`, -5.17%; that for `CC(C)CNC(=O)CC1OCCc2ccsc21` (stereo not given), -7.58%.

On to `CCCNC(=O)CC1OCCc2ccsc21` (stereo not given), for which the cytotoxicity at 70.5 h was -6.25%. In the case of `COCCn1ccc(NCc2sccc2C)n1` it was -3.13%; in that of `CNC(=O)CN1CCOC(c2ccccc2C(F)(F)F)C1` (stereo not given), 7.85%; in that of `COCc1nccc(C2CCCN(Cc3ccc(C#N)cc3)C2)n1` (stereo not given), -5.34%. In the case of `COCc1nccc(C2CCCN(Cc3ccc(SC)cc3)C2)n1` (stereo not given) it was -3.62%; in that of `O=C(c1ccc2c(c1)OCCCO2)N1CCCCC1C1OCCO1` (stereo not given), -3.71%; in that of `COCc1nccc(C2CCCN(Cc3ccc(C#N)cc3F)C2)n1` (stereo not given), -1.86%. The result for `COCCNC(=O)C1(c2ccc(C)c(OC)c2)CCCC1` reads -10.9%; that for `O=C(CN1CCOC(c2ccccc2C(F)(F)F)C1)NC1CC1` (stereo not given), -7.54%; that for `CCN(CCC(=O)NC1CC1)Cc1ccc(Cl)s1`, -11.3%.

For `COCCNS(=O)(=O)c1ccc(Cl)c(C(=O)N(C)Cc2sccc2C)c1`, the cytotoxicity at 70.5 h is -12.1%. The result for `COc1ccc(NC(=O)N(C)Cc2ccco2)cn1` reads -6.69%; that for `Cc1cccc(CNc2cncc(-n3cccn3)n2)c1`, -5.29%.

For `O=C(CCSc1ccccc1)NCCn1nc2ccccn2c1=O`, the cytotoxicity at 70.5 h is -8.89%. The result for `CC1CCN(CC2CCCN(C(=O)Nc3ccccn3)C2)CC1` (stereo not given) reads -7.54%. The result for `Cn1c(NC(=O)CNC(=O)C2CCCC2)nc2cc(Cl)ccc21` reads -9.81%. In the case of `O=C(NCCN1CCOCC1)c1ccc(-c2ccccc2)[nH]c1=O` it was -2.93%; in that of `Cc1ccc(C(=O)NCCN2CCOCC2)c(=O)[nH]1`, -11.5%. With `COc1ccc(CC(=O)NCCn2nc3ccccn3c2=O)cc1`, the cytotoxicity at 70.5 h is 12.9%. With `COc1c(CNCc2ccc(N3CCOCC3)cc2)c(C)nn1C`, the cytotoxicity at 70.5 h is -9.85%. In the case of `O=C(NC1CCCCC1)C1CCCN(C(=O)Nc2ccccn2)C1` (stereo not given), the cytotoxicity at 70.5 h was -15.3%. In the case of `CN1CCN(C(=O)NCCNc2ncccn2)Cc2ccccc21`, the cytotoxicity at 70.5 h was -14%. The result for `Cc1cc(NCCn2cccn2)n2ncnc2n1` reads 0.75%. In the case of `COCCC(C)NC(=O)Nc1ccc(N2CCOC2=O)c(OC)c1` (stereo not given) it was -11%; in that of `Cc1ccc(NCCNC(=O)C2Cc3cc(C)c(C)cc3O2)nn1` (stereo not given), -2.18%.

Regarding `COc1cc(NC(=O)N(C)Cc2ccc(Br)o2)ncn1`, the cytotoxicity at 70.5 h was -8.49%. In the case of `CCC(CNC(=O)c1c(C)nn(C)c1OC)Oc1ccccc1` (stereo not given) it was -7.65%; in that of `O=C(NCc1cccnc1)NCC(O)c1cccc(C(F)(F)F)c1` (stereo not given), -9.97%; in that of `COC(=O)NCCCC(=O)NCC1(c2cccc(Cl)c2)CC1`, 20.6%. `CNS(=O)(=O)CC1CCCN1C(=O)c1cccc(Cl)c1` (stereo not given): the cytotoxicity at 70.5 h was -7.35%. The result for `Cc1c(C(=O)N2CCSCC2)sc2nc(C(F)(F)F)ccc12` reads -9.06%; that for `Cc1c(C(N)=O)sc2nc(C(F)(F)F)ccc12`, 19.9%.

As to `CN(Cc1nc(-c2cccnc2)no1)C(=O)c1cnc2n1CCCC2`, the cytotoxicity at 70.5 h is -6.12%. For the molecule `CCC(=O)N1CCC(NC2CCSCC2)C1` (stereo not given), the cytotoxicity at 70.5 h is -8.75%. The result for `CN(C)S(=O)(=O)c1cccc(NC(=O)Cc2ccon2)c1` reads -4.37%; that for `Cc1nc(C)n(Cc2cccc(NC3CCN(C)C3=O)c2)n1` (stereo not given), -10.6%. In the case of `CC(OCC(F)(F)F)C(=O)NCCN(C)C` (stereo not given) it was 20.8%.

Regarding `CCN(CC)CCNC(=O)C(C)OCC(F)(F)F` (stereo not given), the cytotoxicity at 70.5 h was -3.49%. `CCSCc1cccc(NC2CCN(C)C2=O)c1` (stereo not given): the cytotoxicity at 70.5 h came out at 19.7%. In the case of `COCCn1cc(NC(=O)C(C)CCc2ccccc2F)ccc1=O` (stereo not given) it was -11.1%. With `O=C(CCCn1cncn1)N1CCCCC1c1nccs1` (stereo not given), the cytotoxicity at 70.5 h was -4.13%. The result for `CC(C)CC(=O)NCCCn1cncn1` reads 16.9%. Consider `CC(C)(C)CC(=O)NCCCn1cncn1`, for which the cytotoxicity at 70.5 h is -6.64%. The result for `CC(C)(C)C(=O)NCCCn1cncn1` reads 6.35%; that for `Cc1cn2c(n1)C(CNCC1=Cc3cc(Cl)ccc3OC1)CCC2` (stereo not given), 3.13%; that for `CC(C)c1nnc2n1CC(CNCc1nnc(C(C)(C)C)o1)CC2` (stereo not given), 9.48%. In the case of `Cc1cc(C)c(CNC(=O)NC2CCOCC2)c(=O)[nH]1` it was -12.6%.

For the molecule `COc1cccc(CN(C)CC2=Nc3ccccc3S(=O)(=O)N2)c1`, the cytotoxicity at 70.5 h is -8.56%. In the case of `COc1cccc(CSCC2=Nc3ccccc3S(=O)(=O)N2)c1` it was 3.53%. Turning to `O=C(c1cc(F)cc2[nH]cnc12)N1CCCCC1Cn1cccn1` (stereo not given), the cytotoxicity at 70.5 h was -7.7%.

As for `CN(C)S(=O)(=O)c1ccc2c(c1)N(Cc1nccn1C)CC2`, the cytotoxicity at 70.5 h was -3.03%. In the case of `CC(C)n1nc2c(cc1=O)CN(c1ncnc3sccc13)CC2`, the cytotoxicity at 70.5 h was -10.1%. In the case of `O=C(c1ccc2[nH]cnc2c1)N1CCCC1Cn1cccn1` (stereo not given) it was -8.04%; in that of `Cc1cc(S(=O)(=O)NC(=O)CCc2cccnc2)c(C)s1`, 1.22%. The result for `Cn1cnnc1-c1ccnc(NCc2ccccc2)c1` reads -6.07%; that for `Fc1ccc(Br)c(NCc2nnsc2Cl)c1`, -2.39%; that for `Cn1cnnc1-c1ccnc(NCc2ccc(Br)cc2)c1`, -4.99%.

On to `OC(CNC1CCOCC1)c1ccc(Cl)c(F)c1` (stereo not given), for which the cytotoxicity at 70.5 h came out at 0.212%. The result for `Cc1nc(CNCC(C)c2nc3ccccc3o2)cs1` (stereo not given) reads 0.552%; that for `Cc1csc(CNCC(C)c2nc3ccccc3o2)n1` (stereo not given), 15%.

For the molecule `Cc1ncsc1CNCC(C)c1nc2ccccc2o1` (stereo not given), the cytotoxicity at 70.5 h was -7.51%. The result for `CCN(CC)S(=O)(=O)N1CCCC1c1nnc2n1CCCCC2` (stereo not given) reads -8.56%; that for `CSCC(=O)N(C)Cc1ccccc1`, -6.59%; that for `Cc1cn2c(n1)C(CNCc1cccc3c1OCO3)CCC2` (stereo not given), 23.3%.

As for `Fc1ccc(NCc2nnsc2Cl)c(OC(F)F)c1`, the cytotoxicity at 70.5 h turned out to be 0.194%. In the case of `CCN(C)C(=O)Nc1cc(F)c(OC)cc1F` it was 18.4%; in that of `CC(C)Cn1cc(NCc2cscn2)cn1`, 9.5%. The result for `c1coc(-c2nnc(CN(Cc3cccs3)CC3CCCO3)o2)c1` (stereo not given) reads -6.66%. The result for `CN(CC(=O)NC(C)(C)C)Cc1nc(-c2ccccc2)c[nH]1` reads 39%; that for `O=C1NCCCCC1NCc1csc(-c2ccsc2)n1` (stereo not given), 7.38%; that for `CC(CNC(=O)c1nc(N2CCOCC2)ncc1Cl)c1ccccc1` (stereo not given), 7.86%. Take `COc1c(CNCc2nnc3n2CCCCC3)c(C)nn1C`: the cytotoxicity at 70.5 h is -6.68%. `COc1c(CNCc2nnc3n2CCCCC3)c(C(C)C)nn1C`: the cytotoxicity at 70.5 h was -4.88%.
